Laboratory results as given in patent US9376421B2, “Compounds and methods for myotonic dystrophy therapy” (The Board of Trustees of the University of Illinois, priority 2014, dated 2016).
“Also recorded” adds a separate entry of the source.

Tests used:
d(CAG)12 = assay: Isothermal titration calorimetry, d(CAG)12; format: binding; conditions: 25° C., 20 mM MOPS pH 7.0, 300 mM NaCl
Method: To directly assess the DNA-targeting ability of 9, ITC experiments were performed with oligonucleotide analogs of the various trinucleotide repeat sequences (Table 1). […] This supports the idea that 9 inhibits the transcription of CTG^exp by stabilizing its hairpin structure. […] The in vitro transcription experiment using (CTG[…]CAG)74 (SEQ ID NOS 3-4, respectively) and compounds 2, 5-7, and 9 was repeated but with (CUG)16 (SEQ ID NO: 1) added as a competitor.
Isothermal titration calorimetry (ITC) measurements were performed at 25° C. on a MicroCal VP-ITC (MicroCal, Inc., Northampton, Mass.). A standard experiment consisted of titrating 10 μL of a 500 μM ligand solution from a […] syringe (rotating at 300 rpm) into a sample cell containing 1.42 mL of a 10 μM DNA or RNA solution. An ITC experiment consisted of 28 total injections (first injection was 5 μL, subsequent injections were 10 μL), with a 10 s duration per injection and delay of 380 s between injections. The initial delay prior to the first injection was 300 s. To derive the heat associated with each injection, the area under each isotherm (microcalories per second versus seconds) was determined by integration by the graphing program Origin 7.0 (MicroCal, Inc. Northampton, Mass.). […]

[1] = test system: DM1 Drosophila expressing i(CTG)480; assay: External eye assay in DM1 Drosophila; format: in vivo
Method: Drosophila lines were cultured in standard cornmeal medium supplemented with dry yeasts. […] The gmr-GAL4 and 24B-GAL4 lines were used to drive UAS transgene expression in eye and muscles respectively. Ligands 2 and 9 were dissolved in ddH2O and mixed with fly food. Genetic crosses were set up in drug-containing fly food at 21.5° C. for external eye assay, and at 25° C. for larval crawling assay and real-time PCR analysis.

[2] = test system: insulin receptor (IR) minigene splicing; conditions: DM1 model cell cultures; cited from earlier work
[3] = test system: SV40 terminator mRNA in i(CUG)480 larvae; assay: SV40 mRNA level in i(CUG)480 larvae (real-time PCR); format: in vivo, Drosophila; conditions: relative to actin RNA
(CCUG)6 / (CCUG)8 = assay: Ligand-RNA binding affinity, CCUG repeats; conditions: (CCUG)8
Excerpt: (§1) Off target activity is a concern for any therapeutic agent but especially one designed to cleave RNA. To test the selectivity of agents 6 and 9, the screening gel assay described above was applied to other RNA targets, specifically cTNT32, (CCUG)8 (SEQ ID NO: 11), and HIV-1 frameshift site RNA (HIV FS) (FIG. 5a). Both 6 and 9 were quite selective. […] Thus, both similarly adopt stem-loop structures with internal loops within the stem, although obviously of different sequences. Differences between 6 and 9 were observed (FIG. 5) with the former cleaving (CCUG)8 (SEQ ID NO: 11), the toxic RNA involved in myotonic dystrophy type 2 (DM2). […] The ability to process the RNA directly parallels the corresponding ligand-RNA binding affinities. Thus, 1, which contains the acridine-triazine core of agent 6, complexes the (CCUG)6 (SEQ ID NO: 12) and (CUG)n sequences.

(CUG)n = assay: Ligand-RNA binding affinity, (CUG)n
Excerpt: as §1

N=C(NCCCCNc1nc(N)nc(N)n1)c1ccc(C(=N)NCCCCNc2nc(N)nc(N)n2)cc1 [Ligand 2]
binding affinity toward d(CAG)12 by ITC (d(CAG)12): lack of binding affinity | disease phenotype in DM1 fly eyes at 200 μM ([1]; 200 μM): reversed the disease phenotype | neurodegenerative (glossy and rough-eye) phenotype ([1]; in fly food, 6 d): reversal of the disease phenotype but less effectively; also recorded: improved the neurodegeneration | rescue of splicing defect of IR minigene (earlier work) [2]: partially rescued | reduction of SV40 mRNA levels in i(CUG)480 larvae [3]: did not | affinity toward (CCUG)8 ((CCUG)6 / (CCUG)8): no affinity | complexation of (CUG)n ((CUG)n): complexes
